The text below walks through data of US20080214669A1, “Composition and Method For Treating Hyperpigmented Skin” (LIPO CHEMICALS INC., priority 2005, published 2008).

The nature of data set [1]: clinical study of skin brightening efficacy and skin redness (chromameter readings). It counts as in vivo, human. The settings on record: emulsion 0.3% by weight. The method, then:
The skin brightening efficacy of p-HCA in ethoxydyglycol versus kojic acid also was tested in a clinical study. In this study, an emulsion containing 0.3%, by weight, p-HCA or kojic acid was used on twenty, mostly female, subjects between the ages of 30 to 50 years. The test composition was applied to the abdomen twice daily (a.m. and p.m.). The test was conducted for eight weeks, and chromameter readings were taken at baseline, and after 2, 4, 6, and 8 weeks.

For data set [2], the system named is skin enzymes. Briefly: metabolism of p-HCA in homogenized human skin. It counts as in vitro ADME. To be noted: human skin homogenate in PBS-ethanol, 37° C., eight hours of incubation. The method, then:
First, to confirm in vivo activity of p-HCA, the metabolism of p-HCA in the skin was determined. In this test, human skin was homogenized in a PBS (phosphate-buffered saline)-ethanol solution, followed by dissolution of p-HCA. The solution was incubated at 37° C. for 8 hours. Samples were taken after 0, 4, and 8 hours, and were centrifuged. The supernatant was filtered and analyzed by HPLC. […] The amount of p-HCA that is metabolized was considered insignificant with respect to an efficacious treatment of hyperpigmentation.

The nature of data set [3]: solubility of p-HCA in solvents / hydroxy-containing compounds (HPLC). It counts as physicochemical. The method, then: Various solvents were tested for an ability to dissolve p-HCA and provide a suitable composition for topical application to efficaciously treat hyperpigmentation. p-HCA was added to various solvents, then sonicated for two hours at 35° C. until no further HCA was dissolved. The samples were cooled to room temperature (25° C.) and allowed to stabilize for 15 hours. The undissolved p-HCA was allowed to settle, the supernatant liquid was filtered, and diluted with the HPLC mobile phase for assay. All samples were analyzed by HPLC on a Hypersil ODS C18 column using water, methanol, glacial acetic acid (55:45:1) as the mobile phase. The flow rate was 1 ml/min and the wavelength for detection was 270 nm. […] p-Hydroxycinnamic acid was added to the hydroxy-containing compound and sonicated until no further p-HCA dissolved after two hours of sonication at 35° C. The test sample was cooled to room temperature, then stabilized for 15 hours. After the p-HCA was allowed to settle, the supernatant was filtered through a 0.2 micron syringe filter. Approximately 0.08 g of this filtered material was weighed into a 25 ml volumetric flask and diluted to volume with HPLC mobile phase. Two standards were analyzed by HPLC and compared to the two samples. The HPLC assay was identical to the HPLC assay discussed above.

The nature of data set [4]: skin penetration, Franz diffusion cells. It counts as in vitro ADME, human. The method, then: In another experiment, a 10% solution of p-HCA in ethoxydiglycol first was prepared. This solution was added to a skin care emulsion in a sufficient amount to provide either 0.3% or 0.1%, by weight, of p-HCA in the final composition. As a comparative example, 0.3%, by weight, of solid p-HCA was added to the same skin care emulsion. The skin care emulsion to which solid p-HCA or the p-HCA solution was added had the following formula (w/w %): • 85.35 water • 0.2 methylparaben • 0.35 xanthan gum • 5.0 butylene glycol • 4.0 sesame oil • 2.5 glyceryl stearate
The skin care emulsions containing p-HCA were applied to cadaver skin. Skin penetration of p-HCA was studied using Franz diffusion cells, n=5 (Permegear, Bethlehem, Pa.). The receptor contained an isotonic phosphate buffer with 30% ethanol, and was stirred continuously at 600 rpm. Samples of dermatomed human cadaver skin (NDRA, Philadelphia) were placed on the cells and prehydrated for 1 hour prior to the experiment. One milliliter of each formulation was added to the donor compartment of each cell, which was covered tightly with PARAFILM®. Samples (300 μl) were withdrawn from the receptor compartment every hour over 8 hours, and replaced with 300 μl of fresh receptor solution. After 8 hours, the skin was removed and cut into small pieces. The skin pieces were homogenized using a Kinematica POLYTRON® homogenizer and centrifuged. The supernatant was filtered through 0.22μ filters, and the p-HCA content was quantified.
All samples were analyzed by HPLC on a Hypersil ODS C18 column using water, methanol, glacial acetic acid (55:45:1) as the mobile phase at a flow rate of 1 ml/min and detection at 270 nm. Lag time and flux were obtained from permeation profiles and skin drug content also was recorded.
The following formula was tested for skin penetration: • Water 28.1% (by wt); • Carbopol 981 (2%) 17.0%; • Ethanol SDA 40b-190 53.0%; • Glycerin 1.0%; • Triethanolamine 0.4%; • p-Hydroxycinnamic acid 0.5%.
The method used to determine skin permeability was the Franz diffusion method disclosed above. […] In particular, 3.9 mcg/ml of p-HCA was found in the receptor compartment of the skin (i.e., permeated through the skin) as opposed to 16.3 mcg/ml p-HCA found within the skin.

[5] abbreviates: hydroethanolic Carbopol gel formula with 0.5% p-hydroxycinnamic acid.
[6] abbreviates: in presence of ethoxydiglycol vs powder form.

Molecules are shown by their SMILES.

In the case of `O=c1cc(CO)occ1O` [kojic acid], the skin redness entry in data set [1] (throughout the eight-week clinical trial) is on record as “did not reduce redness”; in data set [1] (weeks 4 and 8), “induced redness”.
In turn, `O=C(O)C=Cc1ccc(O)cc1` [p-HCA, p-hydroxycinnamic acid] came in with a p-HCA metabolized in data set [2] of 3.6%. Besides, the solubility in data set [3] (30% hydroethanolic solution) was 0.75 wt %; in data set [3] (Ethanol), 14.8 wt %; in data set [3] (PEG-8) it was 5.4 wt %; in data set [3] (butylene glycol), 2.25 wt %; in data set [3] (glycereth-26), 7 wt %; in data set [3] (pentylene glycol), 1.75 wt %. Moreover, the solubility in data set [3] (silicone fluid DC 193) is 4.7 wt %. Also, in data set [4] (setting [5]), the “amount deposited in the skin relative to amount transmitted through the skin” value is “four times greater”. Besides, in data set [4] (setting [5]), the “p-HCA found in the receptor compartment (permeated through the skin)” value is 3.9 µg/mL. For the same molecule, in data set [4] (setting [6]), the “elevation of percent p-HCA that permeates cadaver skin” value is 43%. For the same molecule, the “elevation of percentage of p-HCA that remained within the skin” value in data set [4] (setting [6]) is “about 50%”.
